Experimental data reported in patent US9616245B2, “Method of treating cells with drug and radiation according to proton density” (priority 2009, dated 2017).
Like-named read-outs stand apart in the source and are kept apart here.

Experiments:
[1] = tested on: head and neck tumor cell lines; details: Clin. Cancer Res. 2005; 11(19); cited from earlier work
lipoxygenase = details: cited from earlier work
IkB kinase = details: cited from earlier work
protein kinase C (PKC) = details: cited from earlier work
cancer cells = details: cited from earlier work
cycloxygenase = details: cited from earlier work
[2] = tested on: peripheral blood monocytes and alveolar macrophages; details: cited from earlier work
[3] = target: inducible nitric oxide synthase (iNOS) (Homo sapiens, UniProt P35228); details: cited from earlier work
Sequence of inducible nitric oxide synthase (iNOS) (P35228 whole entry, species assumed): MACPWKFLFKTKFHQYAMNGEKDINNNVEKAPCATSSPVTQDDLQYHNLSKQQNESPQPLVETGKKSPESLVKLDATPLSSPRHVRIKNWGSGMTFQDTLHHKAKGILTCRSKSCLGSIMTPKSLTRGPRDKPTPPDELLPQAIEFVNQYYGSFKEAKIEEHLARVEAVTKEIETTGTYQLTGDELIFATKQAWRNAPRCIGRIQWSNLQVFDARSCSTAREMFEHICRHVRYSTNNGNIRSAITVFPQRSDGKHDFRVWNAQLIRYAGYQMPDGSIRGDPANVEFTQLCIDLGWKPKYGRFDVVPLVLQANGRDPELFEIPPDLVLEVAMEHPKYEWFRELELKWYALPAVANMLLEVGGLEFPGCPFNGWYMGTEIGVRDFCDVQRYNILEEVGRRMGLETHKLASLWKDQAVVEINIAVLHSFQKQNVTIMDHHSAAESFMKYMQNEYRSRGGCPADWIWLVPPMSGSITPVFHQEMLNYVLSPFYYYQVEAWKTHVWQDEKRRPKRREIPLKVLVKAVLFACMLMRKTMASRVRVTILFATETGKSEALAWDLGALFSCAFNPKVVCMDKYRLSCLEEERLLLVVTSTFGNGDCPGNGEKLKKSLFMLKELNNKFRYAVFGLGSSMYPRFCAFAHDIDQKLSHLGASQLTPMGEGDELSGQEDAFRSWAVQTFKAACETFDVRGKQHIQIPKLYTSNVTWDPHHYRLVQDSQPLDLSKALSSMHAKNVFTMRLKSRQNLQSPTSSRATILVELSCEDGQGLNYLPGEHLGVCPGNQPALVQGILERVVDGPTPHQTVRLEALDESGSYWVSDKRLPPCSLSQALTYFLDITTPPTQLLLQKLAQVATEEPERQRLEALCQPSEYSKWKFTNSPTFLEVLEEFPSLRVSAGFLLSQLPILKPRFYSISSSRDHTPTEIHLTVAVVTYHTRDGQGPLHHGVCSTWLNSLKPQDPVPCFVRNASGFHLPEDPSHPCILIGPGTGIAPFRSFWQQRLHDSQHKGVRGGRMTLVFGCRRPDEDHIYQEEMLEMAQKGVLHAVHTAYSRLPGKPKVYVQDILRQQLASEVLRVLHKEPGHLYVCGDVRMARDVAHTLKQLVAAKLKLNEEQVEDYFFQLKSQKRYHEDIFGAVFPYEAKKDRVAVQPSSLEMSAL

Method for recurrent Meduloblastoma: They also had high-grade fever. The chemotherapy was stopped for a week and given a blood transfusion and stabilized the patient. In the second leg the patient was then put on FORN mediated metronomic chemotherapy upon the request of their parent.
During the FORN break period, as advised by the patient's treating oncologist, the patient continued the chemotherapy without FORN. Thus during the third leg the patient took chemotherapy without FORN. […] Another transfusion of blood was conducted.
During the third leg of the trial, the cytotoxic drugs were continued to be administered, without the use of FORN.

O=P1(N(CCCl)CCCl)NCCCO1 (stereo not shown) [Cyclophosphamide]
bone marrow / blood counts (recurrent Meduloblastoma; first leg, without FORN, metronomic mode with three anti angiogenic drugs, after 2 weeks): severe bone marrow depression

COc1cc([C@@H]2c3cc4c(cc3[C@@H](O[C@@H]3O[C@@H]5CO[C@@H](C)O[C@H]5[C@H](O)[C@H]3O)[C@H]3COC(=O)[C@H]23)OCO4)cc(OC)c1O [VP 16, Etoposide]
bone marrow / blood counts (recurrent Meduloblastoma; human, in vivo): severe bone marrow depression

COc1cc(/C=C/C(=O)CC(=O)/C=C/c2ccc(O)c(OC)c2)ccc1O [Curcumin]
growth of tumor cell lines [1]: suppresses growth
inhibition of lipoxygenase (lipoxygenase): inhibits
inhibition of IkB kinase (IkB kinase): potent inhibitor
inhibition of phorbol ester induced PKC activity (protein kinase C (PKC)): inhibits
apoptosis (programmed cell death) (cancer cells): induce apoptosis
inhibition of cycloxygenase (cycloxygenase): inhibits
production of inflammatory cytokines [2]: inhibit production
inhibition of iNOS [3]: inhibits
